Reference: article PMC11314561, “Design and Synthesis of Novel Aminoindazole-pyrrolo[2,3-b]pyridine Inhibitors of IKKα That Selectively Perturb Cellular Non-Canonical NF-κB Signalling” (Molecules, 2024)

Legend:
Assay in all cases: kinase panel
Assay type in all cases: biochemical
[1] = molecular target: CDK3/cyclinE(h) (Homo sapiens, UniProt Q00526)
How it was run: (§1)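 Three compounds in the series were profiled against a panel of 231 kinases, and activity is reported as % inhibition. For one compound, a subset of 98 kinases was selected on the basis of its structural similarity to another series member.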

[2] = molecular target: T1, EphA1(h) (Homo sapiens, UniProt P21709)
T1 sequence (P21709 26-976): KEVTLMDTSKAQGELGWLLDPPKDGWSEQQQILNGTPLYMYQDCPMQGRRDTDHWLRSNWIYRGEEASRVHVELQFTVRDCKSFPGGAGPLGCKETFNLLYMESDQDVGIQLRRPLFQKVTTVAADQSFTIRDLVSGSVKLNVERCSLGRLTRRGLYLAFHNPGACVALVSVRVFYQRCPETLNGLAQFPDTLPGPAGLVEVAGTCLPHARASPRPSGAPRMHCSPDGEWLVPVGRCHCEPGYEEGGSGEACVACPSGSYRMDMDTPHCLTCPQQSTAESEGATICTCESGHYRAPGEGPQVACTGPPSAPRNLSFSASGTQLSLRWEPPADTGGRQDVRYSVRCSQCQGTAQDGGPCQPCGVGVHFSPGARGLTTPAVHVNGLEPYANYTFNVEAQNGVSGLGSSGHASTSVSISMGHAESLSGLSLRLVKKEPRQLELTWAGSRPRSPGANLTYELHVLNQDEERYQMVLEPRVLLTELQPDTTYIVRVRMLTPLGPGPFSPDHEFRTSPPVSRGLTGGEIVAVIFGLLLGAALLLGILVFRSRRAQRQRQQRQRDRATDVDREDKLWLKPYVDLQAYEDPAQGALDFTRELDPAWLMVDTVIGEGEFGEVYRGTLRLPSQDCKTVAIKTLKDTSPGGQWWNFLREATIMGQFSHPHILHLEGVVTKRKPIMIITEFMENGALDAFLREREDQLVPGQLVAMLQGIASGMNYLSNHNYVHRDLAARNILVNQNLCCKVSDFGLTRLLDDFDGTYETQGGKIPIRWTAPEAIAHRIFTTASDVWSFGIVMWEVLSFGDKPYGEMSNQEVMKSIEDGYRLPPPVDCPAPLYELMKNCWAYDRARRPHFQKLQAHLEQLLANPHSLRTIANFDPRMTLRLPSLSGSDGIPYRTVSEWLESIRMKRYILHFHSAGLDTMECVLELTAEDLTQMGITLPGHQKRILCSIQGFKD
How it was run: as §1

[3] = molecular target: MSK1(h) (Homo sapiens, UniProt O75582)
How it was run: as §1

[4] = molecular target: CDK5/p35(h) (Homo sapiens, UniProt Q00535)
How it was run: as §1

[5] = molecular target: T2, PRAK(h) (Homo sapiens, UniProt Q8IW41)
T2 sequence (Q8IW41 1-473): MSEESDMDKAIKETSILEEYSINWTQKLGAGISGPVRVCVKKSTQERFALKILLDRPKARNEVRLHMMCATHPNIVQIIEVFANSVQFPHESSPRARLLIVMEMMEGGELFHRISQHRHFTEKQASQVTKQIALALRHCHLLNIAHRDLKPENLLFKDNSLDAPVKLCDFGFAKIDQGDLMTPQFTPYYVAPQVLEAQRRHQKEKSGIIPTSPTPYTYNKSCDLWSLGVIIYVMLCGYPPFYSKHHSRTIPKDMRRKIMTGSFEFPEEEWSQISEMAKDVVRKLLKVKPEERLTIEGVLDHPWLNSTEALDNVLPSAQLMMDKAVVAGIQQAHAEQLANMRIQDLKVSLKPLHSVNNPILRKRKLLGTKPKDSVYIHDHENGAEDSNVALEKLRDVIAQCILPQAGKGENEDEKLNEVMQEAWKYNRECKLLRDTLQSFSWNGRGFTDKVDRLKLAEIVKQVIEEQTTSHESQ
How it was run: as §1

[6] = molecular target: BRK(h) (Homo sapiens, UniProt Q13882)
How it was run: as §1

[7] = molecular target: Syk(h) (Homo sapiens, UniProt P43405)
How it was run: as §1

[8] = molecular target: CDK2/cyclinE(h) (Homo sapiens, UniProt P24941)
How it was run: as §1

[9] = molecular target: Rsk1(h) (Homo sapiens, UniProt Q15418)
How it was run: as §1

[10] = molecular target: PAR-1Bα(h) (Homo sapiens, UniProt Q7KZI7)
How it was run: as §1

[11] = molecular target: PKBα(h) (Homo sapiens, UniProt P31749)
How it was run: as §1

[12] = molecular target: MINK(h) (Homo sapiens, UniProt Q8N4C8)
How it was run: as §1

[13] = molecular target: T3, PDK1(h) (Homo sapiens, UniProt O15530)
T3 sequence (O15530 1-556): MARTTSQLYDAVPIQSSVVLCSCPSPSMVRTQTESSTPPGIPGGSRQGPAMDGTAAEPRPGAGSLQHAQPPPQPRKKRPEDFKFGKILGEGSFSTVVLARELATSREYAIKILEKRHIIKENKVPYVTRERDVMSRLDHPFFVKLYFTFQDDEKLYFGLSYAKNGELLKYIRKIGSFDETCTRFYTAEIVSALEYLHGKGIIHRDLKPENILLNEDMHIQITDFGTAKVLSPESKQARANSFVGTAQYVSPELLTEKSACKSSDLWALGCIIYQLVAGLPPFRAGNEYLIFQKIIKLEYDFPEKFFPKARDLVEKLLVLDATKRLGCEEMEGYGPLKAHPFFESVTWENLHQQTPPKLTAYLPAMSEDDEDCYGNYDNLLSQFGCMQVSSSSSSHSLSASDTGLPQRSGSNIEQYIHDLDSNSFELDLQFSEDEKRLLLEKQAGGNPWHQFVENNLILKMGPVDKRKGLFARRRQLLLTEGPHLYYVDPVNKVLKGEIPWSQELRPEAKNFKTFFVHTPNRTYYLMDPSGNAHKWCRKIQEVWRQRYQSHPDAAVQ
How it was run: as §1

Chain of BRK(h) (Q13882 whole entry): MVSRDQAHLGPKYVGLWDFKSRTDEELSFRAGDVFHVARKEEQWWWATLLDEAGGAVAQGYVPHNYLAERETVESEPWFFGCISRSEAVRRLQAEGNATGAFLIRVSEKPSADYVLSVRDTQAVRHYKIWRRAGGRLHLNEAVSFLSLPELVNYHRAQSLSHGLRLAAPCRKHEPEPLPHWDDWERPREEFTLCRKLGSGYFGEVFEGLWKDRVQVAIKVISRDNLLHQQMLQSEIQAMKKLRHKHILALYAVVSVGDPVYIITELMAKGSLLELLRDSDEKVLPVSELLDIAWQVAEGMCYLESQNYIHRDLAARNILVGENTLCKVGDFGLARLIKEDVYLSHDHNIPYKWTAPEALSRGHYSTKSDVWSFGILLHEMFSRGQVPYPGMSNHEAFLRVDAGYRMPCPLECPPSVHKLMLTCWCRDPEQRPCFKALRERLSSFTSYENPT
Chain of MINK(h) (Q8N4C8 whole entry): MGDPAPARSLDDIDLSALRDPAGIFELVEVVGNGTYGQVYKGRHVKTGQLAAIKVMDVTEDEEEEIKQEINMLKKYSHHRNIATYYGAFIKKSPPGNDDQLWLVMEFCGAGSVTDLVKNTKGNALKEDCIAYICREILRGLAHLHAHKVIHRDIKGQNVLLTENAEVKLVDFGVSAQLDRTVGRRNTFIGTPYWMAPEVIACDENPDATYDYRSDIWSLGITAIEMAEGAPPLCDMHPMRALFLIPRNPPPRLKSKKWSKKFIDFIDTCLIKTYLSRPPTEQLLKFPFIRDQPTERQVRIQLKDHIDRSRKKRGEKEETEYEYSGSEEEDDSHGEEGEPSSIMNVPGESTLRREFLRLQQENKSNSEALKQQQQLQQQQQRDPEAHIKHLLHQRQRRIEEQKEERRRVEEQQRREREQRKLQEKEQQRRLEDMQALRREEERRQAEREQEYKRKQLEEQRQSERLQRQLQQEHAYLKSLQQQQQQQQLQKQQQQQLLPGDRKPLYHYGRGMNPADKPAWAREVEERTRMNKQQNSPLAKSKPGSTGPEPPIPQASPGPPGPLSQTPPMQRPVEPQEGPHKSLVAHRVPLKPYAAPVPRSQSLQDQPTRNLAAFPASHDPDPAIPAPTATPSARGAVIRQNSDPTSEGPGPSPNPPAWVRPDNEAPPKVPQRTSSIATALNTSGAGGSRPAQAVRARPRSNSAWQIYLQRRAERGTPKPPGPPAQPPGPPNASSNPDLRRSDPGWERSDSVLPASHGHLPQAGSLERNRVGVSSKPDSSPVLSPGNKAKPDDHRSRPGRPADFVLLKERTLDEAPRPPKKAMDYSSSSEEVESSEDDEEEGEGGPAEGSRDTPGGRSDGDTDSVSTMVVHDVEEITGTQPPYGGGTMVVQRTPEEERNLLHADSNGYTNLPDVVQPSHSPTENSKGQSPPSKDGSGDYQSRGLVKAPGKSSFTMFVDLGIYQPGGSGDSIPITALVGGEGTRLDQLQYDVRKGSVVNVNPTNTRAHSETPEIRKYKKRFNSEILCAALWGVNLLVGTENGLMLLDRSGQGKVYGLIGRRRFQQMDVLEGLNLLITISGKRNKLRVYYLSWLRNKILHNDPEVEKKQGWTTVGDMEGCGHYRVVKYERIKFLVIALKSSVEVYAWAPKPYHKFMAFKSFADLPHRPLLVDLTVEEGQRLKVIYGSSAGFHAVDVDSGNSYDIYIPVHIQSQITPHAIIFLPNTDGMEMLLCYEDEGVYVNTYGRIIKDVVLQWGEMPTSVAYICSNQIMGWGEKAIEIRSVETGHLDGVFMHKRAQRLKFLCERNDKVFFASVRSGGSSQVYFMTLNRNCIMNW
Chain of Rsk1(h) (Q15418 whole entry): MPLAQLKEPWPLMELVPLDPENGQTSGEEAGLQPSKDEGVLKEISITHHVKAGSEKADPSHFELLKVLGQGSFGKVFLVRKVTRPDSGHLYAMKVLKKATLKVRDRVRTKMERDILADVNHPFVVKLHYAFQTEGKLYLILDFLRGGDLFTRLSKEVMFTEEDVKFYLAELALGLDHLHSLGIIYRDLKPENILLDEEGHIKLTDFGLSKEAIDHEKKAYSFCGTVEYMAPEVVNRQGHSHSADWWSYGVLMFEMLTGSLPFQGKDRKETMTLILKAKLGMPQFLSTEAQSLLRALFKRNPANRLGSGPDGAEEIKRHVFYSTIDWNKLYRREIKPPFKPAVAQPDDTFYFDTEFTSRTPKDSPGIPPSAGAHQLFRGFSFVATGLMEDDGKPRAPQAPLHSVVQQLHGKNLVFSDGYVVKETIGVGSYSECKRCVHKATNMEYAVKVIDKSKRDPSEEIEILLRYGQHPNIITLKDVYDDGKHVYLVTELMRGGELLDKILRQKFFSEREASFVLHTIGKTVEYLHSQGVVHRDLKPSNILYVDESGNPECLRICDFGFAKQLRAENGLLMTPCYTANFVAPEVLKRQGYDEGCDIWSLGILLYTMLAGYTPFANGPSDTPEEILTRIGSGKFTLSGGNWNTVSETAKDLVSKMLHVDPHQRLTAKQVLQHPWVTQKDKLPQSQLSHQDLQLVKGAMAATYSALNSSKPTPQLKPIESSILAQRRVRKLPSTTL
Chain of MSK1(h) (O75582 whole entry): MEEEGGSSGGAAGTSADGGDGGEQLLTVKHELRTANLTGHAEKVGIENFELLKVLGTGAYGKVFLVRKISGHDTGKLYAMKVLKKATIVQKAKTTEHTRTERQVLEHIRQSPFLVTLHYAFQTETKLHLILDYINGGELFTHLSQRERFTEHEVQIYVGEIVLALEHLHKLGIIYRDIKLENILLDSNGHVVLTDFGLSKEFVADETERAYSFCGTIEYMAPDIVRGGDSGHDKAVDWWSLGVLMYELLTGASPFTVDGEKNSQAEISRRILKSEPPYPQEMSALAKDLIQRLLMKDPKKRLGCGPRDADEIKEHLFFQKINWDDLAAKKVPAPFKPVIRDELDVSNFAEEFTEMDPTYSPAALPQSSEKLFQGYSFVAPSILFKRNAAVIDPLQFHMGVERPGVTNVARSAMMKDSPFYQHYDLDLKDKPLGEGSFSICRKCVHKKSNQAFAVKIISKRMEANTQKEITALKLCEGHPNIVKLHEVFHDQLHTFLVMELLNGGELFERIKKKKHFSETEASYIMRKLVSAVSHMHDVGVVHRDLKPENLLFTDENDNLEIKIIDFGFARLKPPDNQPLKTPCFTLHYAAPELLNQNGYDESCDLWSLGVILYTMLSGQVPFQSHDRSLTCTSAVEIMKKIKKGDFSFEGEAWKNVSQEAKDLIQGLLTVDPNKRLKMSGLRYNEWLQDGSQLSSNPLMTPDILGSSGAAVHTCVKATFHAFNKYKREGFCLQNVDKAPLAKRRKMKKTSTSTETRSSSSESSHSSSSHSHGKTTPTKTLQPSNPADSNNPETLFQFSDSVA
Chain of PAR-1Bα(h) (Q7KZI7 whole entry): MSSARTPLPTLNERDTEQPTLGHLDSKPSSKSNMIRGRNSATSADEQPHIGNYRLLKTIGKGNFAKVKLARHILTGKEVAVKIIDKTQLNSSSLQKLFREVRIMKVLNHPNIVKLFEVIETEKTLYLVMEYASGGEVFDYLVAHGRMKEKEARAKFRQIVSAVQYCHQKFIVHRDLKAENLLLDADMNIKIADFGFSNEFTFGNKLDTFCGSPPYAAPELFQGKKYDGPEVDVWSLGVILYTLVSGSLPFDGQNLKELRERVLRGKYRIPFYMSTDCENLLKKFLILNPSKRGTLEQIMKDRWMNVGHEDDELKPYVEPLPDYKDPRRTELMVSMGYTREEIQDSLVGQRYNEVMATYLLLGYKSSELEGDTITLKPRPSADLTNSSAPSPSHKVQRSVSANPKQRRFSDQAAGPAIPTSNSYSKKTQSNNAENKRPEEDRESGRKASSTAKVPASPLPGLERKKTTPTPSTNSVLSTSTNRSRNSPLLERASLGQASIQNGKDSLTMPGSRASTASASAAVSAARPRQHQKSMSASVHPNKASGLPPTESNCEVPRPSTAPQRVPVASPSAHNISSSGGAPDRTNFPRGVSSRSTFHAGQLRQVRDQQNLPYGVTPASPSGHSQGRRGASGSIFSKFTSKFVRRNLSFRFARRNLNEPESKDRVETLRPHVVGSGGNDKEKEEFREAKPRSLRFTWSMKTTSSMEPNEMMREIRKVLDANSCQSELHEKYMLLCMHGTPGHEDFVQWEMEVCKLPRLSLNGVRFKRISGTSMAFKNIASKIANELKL
Chain of CDK5/p35(h) (Q00535 whole entry): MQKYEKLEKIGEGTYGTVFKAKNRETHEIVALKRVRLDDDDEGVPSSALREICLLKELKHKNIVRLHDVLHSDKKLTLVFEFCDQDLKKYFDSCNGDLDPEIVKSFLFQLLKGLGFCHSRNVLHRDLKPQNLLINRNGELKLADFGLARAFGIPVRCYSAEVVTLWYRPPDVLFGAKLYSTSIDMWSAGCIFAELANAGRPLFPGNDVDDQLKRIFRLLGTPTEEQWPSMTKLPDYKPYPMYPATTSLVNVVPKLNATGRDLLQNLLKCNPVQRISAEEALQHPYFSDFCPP
Chain of CDK5/p35(h) (Q15078 whole entry partner): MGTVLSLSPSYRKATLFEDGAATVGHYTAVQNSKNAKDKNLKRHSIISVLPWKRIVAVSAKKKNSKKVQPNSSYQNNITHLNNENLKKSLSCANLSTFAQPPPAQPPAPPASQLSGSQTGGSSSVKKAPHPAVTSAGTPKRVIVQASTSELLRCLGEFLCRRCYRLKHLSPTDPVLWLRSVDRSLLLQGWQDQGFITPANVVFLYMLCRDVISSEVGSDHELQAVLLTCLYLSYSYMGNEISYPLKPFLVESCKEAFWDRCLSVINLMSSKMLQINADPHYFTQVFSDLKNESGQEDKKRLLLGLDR

SMILES | inhibition at 1 µM [1] [%] | inhibition at 1 µM [2] [%] | inhibition at 1 µM [3] [%] | inhibition at 1 µM [4] [%] | inhibition at 1 µM [5] [%] | inhibition at 1 µM [6] [%] | inhibition at 1 µM [7] [%] | inhibition at 1 µM [8] [%] | inhibition at 1 µM [9] [%] | inhibition at 1 µM [10] [%] | inhibition at 1 µM [11] [%] | inhibition at 1 µM [12] [%] | inhibition at 1 µM [13] [%]
Nc1n[nH]c2ccc(-c3ccnc4[nH]c(-c5ccccc5)cc34)cc12 [Compound 4] | 94 | 87 | -2 | 101 | 97 | 46 | 77 | 86 | 38 | 86 | 8 | 92 | 25
Nc1n[nH]c2ccc(-c3ccnc4[nH]c(-c5cccc(OCc6ccccc6)c5)cc34)cc12 [Compound 5r [SU1261]] | 45 | 24 | -24 | 96 | 91 | 17 | 32 | 37 | 2 | 29 | 10 | 51 | 7
Nc1n[nH]c2ccc(-c3ccnc4[nH]c(-c5ccnc(OCc6ccccc6)c5)cc34)cc12 [Compound 6g [SU1349]] | 37 | -7 | -4 | 90 | 44 | 8 | 25 | 29 | -18 | 20 | 4 | 41 | 18
